Assay results taken from publication PMC12400753 (Respiratory Research, 2025).

Legend:
[1] = test system: bleomycin-induced lung fibrosis; experiment: Intratracheal bleomycin mouse model (14 day, prophylactic dosing); type: in vivo; settings: for body weight improvement over bleomycin alone: day 14
Procedure: Intratracheal instillation of bleomycin results in acute alveolar cell damage, inflammation, and subsequent tissue remodeling and is a widely used preclinical IPF model.
Female C57BL6/N mice 8–10 weeks old were obtained from Charles River. […] Bleomycin was administered by oropharyngeal instillation 23 h after first dose (Day 0). On the day of instillation, bleomycin was prepared by diluting a 15 unit (U) vial to 1.5 U/mL with sterile saline. Mice were lightly anesthetized with isoflurane (5% in 100% O2) and administered sterile saline or bleomycin (3.0 U/kg) via oropharyngeal instillation at a dose volume of 2 mL/kg (2 µL/g). Mice were returned to their cages and monitored daily for the duration of each experiment. […] Fourteen days after bleomycin instillation, mice were euthanized via isoflurane anaesthesia, cardiac blood collected into K3EDTA tubes and stored on wet ice, and BALF and lungs were isolated for subsequent analysis of biochemical and histopathological indices of lung injury, inflammation, and fibrosis. To do this, mice were intubated with a 20-gauge luer stub adapter connected to a 3-way stopcock fitted with two 3 mL syringes (the delivery syringe was pre-filled with 1.5 mL phosphate buffered saline (PBS), and the receiving syringe was empty). Lungs were lavaged with PBS (2 × 0.75 mL) to obtain BALF. BALF was placed on wet ice until centrifugation to separate from cells. Lungs were dissected and placed into 1 mL 6 M HCl for collagen analysis using the Quickzyme total collagen assay kit according to manufacturer’s instructions. At the end of the experimental collection, BALF was centrifuged (300 x g, 10 min, 4 °C) to isolate BALF from the cell pellet. The cell pellet was discarded and the BALF aliquoted and stored at −80 °C for biomarker analysis. For the analysis, n = 8 biological replicates were analyzed in singlicate for various biomarkers (total protein, TGFβ1, TIMP-1, procollagen) according to manufacturer’s recommended instructions.

[2] = test system: sandwich-cultured human hepatocytes; experiment: Cholestatic drug-induced liver injury (c-DILI) assay; type: cell-based; settings: 30 µM, 24 h, in the presence or absence of a toxic concentration of bile acids
Procedure: This study was conducted at BioIVT (Durham, […]). Sandwich-cultured human hepatocytes (SCHH) were prepared on BioCoat 96-well Cell Culture Plate from Corning (Cat # 354407) using Transporter Certified™ cryopreserved hepatocytes from BioIVT (Cat # M00995-TCERT) and maintained in freshly prepared QualGro™ Hepatocyte Culture Medium. […] Following 24 h of exposure, the culture plates were harvested for adenosine triphosphate (ATP) and lactate dehydrogenase (LDH) analysis. Cellular ATP content was determined using the CellTiter-Glo® Assay Kit and LDH leakage into the culture media was determined using the CytoTox-ONE® Assay Kit, both obtained from Promega, per manufacturer’s instructions.

[3] = test system: normal, non-fibrotic human PCLS; experiment: Fibrotic marker mRNA (qPCR) in normal PCLS; type: cell-based; settings: n=5 donors
Procedure: (§1) Precision cut lung slices were obtained from Anabios (San Diego, CA) and collected in accordance with their ethics policy (https://anabios.com/ethics-statement/). Donor demographics are available in Additional File 1. Slices were thawed as per vendor instructions. Briefly, PCLS were thawed at 37 °C then transferred to media consisting of DMEM/F12, Antibiotic-Antimytotic, and Penicillin-Streptomycin. PCLS were gently rinsed then transferred to a larger dish. A small tissue sample was excised with a scalpel for immunohistochemistry and qPCR characterization. […] Final concentration of DMSO was 0.1%. Media and compound were replaced every two days for a total of 6 days. At the end of the experiment, slices were collected and snap frozen. Quantitative PCR: RNA was extracted using RNEasy columns. RNA was reverse transcribed using qScript XLT per manufacturer’s instructions. Genes of interest were assessed by qPCR using Perfecta SYBR Green on a StepOne Plus Thermocycler (ABI). Parameters were as follows: 95 °C 30 s, then 45 cycles of 95 °C for 5 s and 60 °C for 30 s.

[4] = test system: human precision cut lung slices from donors with pulmonary fibrosis; experiment: Fibrotic marker mRNA (qPCR) in cryopreserved PCLS from donors with pulmonary fibrosis; type: cell-based; settings: PIPE-791, 6 days, 6 donors
Text: Slices were snap frozen and processed for transcript analysis by quantitative PCR. […] Concurrently, we evaluated two well-established, clinical stage antifibrotic mechanisms in this setting: an αvβ1/6 inhibitor (bexotegrast, PLN-74809) and a PDE4B inhibitor (nerandomilast, BI 1015550).
as §1

COc1ccc(NC(=O)N(c2ccccc2C(C)C)C2CCC(C(=O)O)CC2)c(OC(F)F)n1 (stereo not shown) [PIPE-791]
body weight improvement over bleomycin alone ([1]; 0.03 mg/kg oral once a day): 28%
lung hydroxyproline (collagen) ([1]; 0.03 mg/kg oral once a day, p = 0.077): trending decrease in collagen, the values did not reach statistical significance
reduction in lung hydroxyproline ([1]; 0.3 mg/kg oral once a day): 41%
body weight improvement over bleomycin alone ([1]; 0.3 mg/kg oral once a day): 41%
reduction in BAL fluid TGFβ vs bleomycin/vehicle ([1]; 3 mg/kg oral once a day): 51%
reduction in BAL fluid TIMP1 vs bleomycin/vehicle ([1]; 3 mg/kg oral once a day): 57%
reduction in BAL fluid procollagen vs bleomycin/vehicle ([1]; 3 mg/kg oral once a day): 65%
reduction in lung hydroxyproline ([1]; 3 mg/kg oral once a day): 39%
body weight improvement over bleomycin alone ([1]; 3 mg/kg oral once a day): 38%
survival ([1]; 0.03, 0.3, 3 mg/kg groups, 3 mice died in bleomycin/vehicle group): no mice lost
maximal inhibition of lung collagen ([1]; prophylactic, at 0.3 mg/kg (discussion)): 40%
ATP content (cell viability) [2]: nor a decrease in ATP content
lactate dehydrogenase leakage (cell death) [2]: neither an appreciable increase in lactate dehydrogenase
expression of fibrotic marker transcripts (COL1A1, COL3A1, SERPINE1, TIMP1, LPAR1) [3]: did not alter the expression of any of the fibrotic marker transcripts tested
COL1A1 mRNA expression vs vehicle [4]: significantly less expression
COL3A1 mRNA expression vs vehicle [4]: significantly less expression
LPAR1 mRNA levels vs vehicle [4]: not significantly affected
SERPINE1 mRNA expression vs vehicle [4]: significantly less expression
TIMP1 mRNA expression vs vehicle [4]: significantly less expression
